Measurements reported in US20260356820A1, “Pyrrolidine and Imidazolidine Based DNA Polymerase Theta Inhibitors and Use Thereof” (Thomas Jefferson University, priority 2022, published 2026).

biological target: T1, human Polq polymerase domain (Homo sapiens, UniProt O75417); test: Cy5 fluorescence assay of Polq polymerase domain inhibition; type: biochemical; details: not given
T1 sequence (O75417 1792-2590): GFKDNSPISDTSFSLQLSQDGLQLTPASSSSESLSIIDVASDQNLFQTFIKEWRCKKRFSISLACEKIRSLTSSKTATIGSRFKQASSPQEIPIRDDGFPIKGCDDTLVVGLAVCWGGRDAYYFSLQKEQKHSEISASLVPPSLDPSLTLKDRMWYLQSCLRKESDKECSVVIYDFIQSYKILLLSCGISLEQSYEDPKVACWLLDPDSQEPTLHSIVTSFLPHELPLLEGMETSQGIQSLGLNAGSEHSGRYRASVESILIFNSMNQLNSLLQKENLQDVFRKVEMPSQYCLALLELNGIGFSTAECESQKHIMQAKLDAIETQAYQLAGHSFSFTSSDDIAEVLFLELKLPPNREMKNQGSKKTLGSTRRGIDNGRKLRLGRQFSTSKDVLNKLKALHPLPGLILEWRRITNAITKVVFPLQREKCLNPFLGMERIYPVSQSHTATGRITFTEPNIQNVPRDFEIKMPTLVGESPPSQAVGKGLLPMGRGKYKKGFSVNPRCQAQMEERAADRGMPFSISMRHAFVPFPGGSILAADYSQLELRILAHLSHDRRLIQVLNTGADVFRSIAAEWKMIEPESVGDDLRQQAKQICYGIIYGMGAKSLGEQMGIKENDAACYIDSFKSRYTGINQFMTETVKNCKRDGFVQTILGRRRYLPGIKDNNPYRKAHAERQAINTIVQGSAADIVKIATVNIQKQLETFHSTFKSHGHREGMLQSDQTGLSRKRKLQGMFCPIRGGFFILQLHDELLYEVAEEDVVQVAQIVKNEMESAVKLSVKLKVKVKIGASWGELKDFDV
Method: The following Cy5 fluorescence assay was used to measure the ability of compounds to inhibit Polq polymerase domain in vitro. The fluorescent based assay was performed as follows: 60 nM of the pre-annealed primer-template containing a 5′ Cy5 fluorophore conjugated template strand (SEQ ID NO:3: 5′-/5Cy5/[…]-3′), a downstream complementary oligo conjugated with a 3′ Blackhole quencher (SEQ ID NO:4: 5′-CTAAGCTCACAGTG/3IAbRQSp/-3′) and a primer strand (SEQ ID NO:5: 5′-CTGTCCTGCATGATG-3′) was mixed with 50 uM 2′-deoxyribonucleoside triphosphates (dNTPs), 0.1 mg/mL Bovine serum albumin (BSA), 0.01% NP-40, 10% glycerol, 1 mM dithiothreitol (DTT), 10 mM MgCl2, 25 mM TrisHCl pH 7.8 in the presence of 2.5% DMSO with or without various concentrations (7-point dilution series) of Polq small molecule inhibitors represented by Formula I at 37 °C in a volume of 40 μL.

| Compound | IC50 |
| --- | --- |
| CN(C(=O)Oc1c(N2CCN(CCN3CCOCC3)C2=O)cc(C(F)(F)F)cc1C(F)(F)F)c1ccc(F)cc1 [Example 1, 2-(3-(2-morpholinoethyl)-2-oxoimidazolidin-1-yl)-4,6-bis(trifluoromethyl)phenyl (4-fluorophenyl)(methyl)carbamate] | 12 nM |
| CC(=O)N1CCN(CCN2CCN(c3cc(C(F)(F)F)cc(C(F)(F)F)c3OC(=O)N(C)c3ccc(F)cc3)C2=O)CC1 [Example 2, 2-(3-(2-(4-acetylpiperazin-1-yl)ethyl)-2-oxoimidazolidin-1-yl)-4,6-bis(trifluoromethyl)phenyl (4-fluorophenyl)(methyl)carbamate] | 4.5 nM |
| CN(C(=O)Oc1c(N2CCN(CCN3CCC(C#N)CC3)C2=O)cc(C(F)(F)F)cc1C(F)(F)F)c1ccc(F)cc1 [Example 3, 2-(3-(2-(4-cyanopiperidin-1-yl)ethyl)-2-oxoimidazolidin-1-yl)-4,6-bis(trifluoromethyl)phenyl (4-fluorophenyl)(methyl)carbamate] | 6 nM |
| CN(C(=O)Oc1c(N2CCNC2=O)cc(C(F)(F)F)cc1C(F)(F)F)c1ccc(F)cc1 [Example 4, 2,4-bis(trifluoromethyl)-6-(2-oxoimidazolidin-1-yl)phenyl (4-fluorophenyl)(methyl)carbamate] | 3.4 nM |
| CN(C(=O)Oc1c(N2CCNC2=O)cc(C(F)(F)F)cc1C(F)(F)F)c1ccc(F)c(Cl)c1F [Example 7, 2,4-bis(trifluoromethyl)-6-(2-oxoimidazolidin-1-yl)phenyl (3-chloro-2,4-difluorophenyl)(methyl)carbamate] | 4 nM |
| CN1CCN(c2cc(C(F)(F)F)cc(C(F)(F)F)c2OC(=O)N(C)c2ccc(F)c(Cl)c2F)C1=O [Example 8, 2,4-bis(trifluoromethyl)-6-(3-methyl-2-oxoimidazolidin-1-yl)phenyl (3-chloro-2,4-difluorophenyl)(methyl)carbamate] | 3.4 nM |
| CN(C(=O)Oc1c(N2CCNC2=O)cc(C(F)(F)F)cc1C(F)(F)F)c1cc(Cl)c(F)cc1F [Example 9, 2,4-bis(trifluoromethyl)-6-(2-oxoimidazolidin-1-yl)phenyl (5-chloro-2,4-difluorophenyl)(methyl)carbamate] | 21 nM |
| CN(C(=O)Oc1c(N2CCCC2=O)cc(C(F)(F)F)cc1C(F)(F)F)c1ccc(F)cc1 [Example 10, 2,4-bis(trifluoromethyl)-6-(2-oxopyrrolidin-1-yl)phenyl (4-fluorophenyl)(methyl)carbamate] | 21 nM |
| Cc1cc(C(F)(F)F)cc(N2C[C@H](O)CC2=O)c1OC(=O)N(C)c1ccc(F)cc1 [Example 12, (R)-2-(4-hydroxy-2-oxopyrrolidin-1-yl)-6-methyl-4-(trifluoromethyl)phenyl (4-fluorophenyl)(methyl)carbamate] | 4.4 nM |
| Cc1cc(C(F)(F)F)cc(N2CCNC2=O)c1OC(=O)N(C)c1ccc(F)cc1 [Example 13, 2-methyl-6-(2-oxoimidazolidin-1-yl)-4-(trifluoromethyl)phenyl(4-fluorophenyl)(methyl)carbamate] | 29 nM |
| Cc1cc(C(F)(F)F)cc(N2CCNC2=O)c1OC(=O)N(C)c1ccc(F)c(Cl)c1 [Example 14, 2-methyl-6-(2-oxoimidazolidin-1-yl)-4-(trifluoromethyl)phenyl (3-chloro-4-fluorophenyl)(methyl)carbamate] | 45 nM |
| CN(C(=O)Oc1c(N2C(=O)NC(O)C2O)cc(C(F)(F)F)cc1C(F)(F)F)c1ccc(F)cc1 (stereo not drawn) [Example 16, 2-(4,5-dihydroxy-2-oxoimidazolidin-1-yl)-4,6-bis(trifluoromethyl)phenyl N-(4-fluorophenyl)-N-methylcarbamate] | 5.4 nM |
| C[C@@H]1CCC(=O)N1c1cc(C(F)(F)F)cc(C(F)(F)F)c1OC(=O)N(C)c1ccc(F)cc1 [Example 17, 2-[(2R)-2-methyl-5-oxopyrrolidin-1-yl]-4,6-bis(trifluoromethyl)phenyl N-(4-fluorophenyl)-N-methylcarbamate] | 1000 nM |
| CN(C(=O)Oc1c(N2CC(C(F)(F)F)NC2=O)cc(C(F)(F)F)cc1C(F)(F)F)c1ccc(F)cc1 (stereo not drawn) [Example 18, 2-(2-oxo-4-(trifluoromethyl)imidazolidin-1-yl)-4,6-bis(trifluoromethyl)phenyl (4-fluorophenyl)(methyl)carbamate] | 22 nM |
| CN(C(=O)Oc1c(N2CCN(CCOS(N)(=O)=O)C2=O)cc(C(F)(F)F)cc1C(F)(F)F)c1ccc(F)cc1 [Example 21, 2-{2-oxo-3-[2-(sulfamoyloxy)ethyl]imidazolidin-1-yl}-4,6-bis(trifluoromethyl)phenyl N-(4-fluorophenyl)-N-methylcarbamate] | 1.9 nM |
| CN(C(=O)Oc1c(N2CCN(CC3(O)CN(C(=O)OC(C)(C)C)C3)C2=O)cc(C(F)(F)F)cc1C(F)(F)F)c1ccc(F)cc1 [Example 23, tert-butyl 3-((3-(2-(((4-fluorophenyl)(methyl)carbamoyl)oxy)-3,5-bis(trifluoromethyl)phenyl)-2-oxoimidazolidin-1-yl)methyl)-3-hydroxyazetidine-1-carboxylate] | 1.8 nM |
| CN(C(=O)Oc1c(N2CCN(CC3CO3)C2=O)cc(C(F)(F)F)cc1C(F)(F)F)c1ccc(F)cc1 (stereo not drawn) [Example 25, 2,4-bis(trifluoromethyl)-6-(3-((oxiran-2-yl)methyl)-2-oxoimidazolidin-1-yl)phenyl (4-fluorophenyl)(methyl)carbamate] | 5.8 nM |
| CN(C(=O)Oc1c(N2CCNC2=O)cc(C(F)(F)F)cc1C(F)(F)F)c1ccc(OC(F)F)cc1 [Example 26, 2-(2-oxoimidazolidin-1-yl)-4,6-bis(trifluoromethyl)phenyl (4-(difluoromethoxy)phenyl)(methyl)carbamate] | 48 nM |

same assay, conditions: 5 nM Polq polymerase domain (residues 1792-2590), 60 nM primer-template, 50 uM dNTPs, 37 °C, 18 min; read-out: IC50 (nM) Polq

| Compound | IC50 |
| --- | --- |
| CN1CCN(c2cc(C(F)(F)F)cc(C(F)(F)F)c2OC(=O)N(C)c2ccc(F)cc2)C1=O [Example 5, 2,4-bis(trifluoromethyl)-6-(3-methyl-2-oxoimidazolidin-1-yl)phenyl (4-fluorophenyl)(methyl)carbamate] | 6 nM |
| CN(C(=O)Oc1c(N2CCCC2)cc(C(F)(F)F)cc1C(F)(F)F)c1ccc(F)cc1 [Example 11, 2,4-bis(trifluoromethyl)-6-(pyrrolidin-1-yl)phenyl 4-fluorophenylmethylcarbamate] | 15 nM |
| Cc1cc(C(F)(F)F)cc(N2CCOC2=O)c1OC(=O)N(C)c1ccc(F)cc1 [Example 15, 4-(trifluoromethyl)-2-methyl-6-(2-oxooxazolidin-3-yl)phenyl 4-fluorophenylmethylcarbamate] | 80 nM |
| CN(C(=O)Oc1c(N2CC[C@H](O)C2=O)cc(C(F)(F)F)cc1C(F)(F)F)c1ccc(F)cc1 [Example 19, 2,4-bis(trifluoromethyl)-6-((S)-3-hydroxy-2-oxopyrrolidin-1-yl)phenyl 4-fluorophenylmethylcarbamate] | 16 nM |
| CC(O)CN1CCN(c2cc(C(F)(F)F)cc(C(F)(F)F)c2OC(=O)N(C)c2ccc(F)cc2)C1=O (stereo not drawn) [Example 20, 2,4-bis(trifluoromethyl)-6-(3-(2-hydroxypropyl)-2-oxoimidazolidin-1-yl)phenyl 4-fluorophenylmethylcarbamate] | 2.4 nM |
| CN(C)CC(O)CN1CCN(c2cc(C(F)(F)F)cc(C(F)(F)F)c2OC(=O)N(C)c2ccc(F)cc2)C1=O (stereo not drawn) [Example 24, 2-(3-(3-(dimethylamino)-2-hydroxypropyl)-2-oxoimidazolidin-1-yl)-4,6-bis(trifluoromethyl)phenyl (4-fluorophenyl)(methyl)carbamate] | 6.7 nM |
